Source: PubChem BioAssay (NCI)
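Growth conditions: 96-well plates. Treatment: test compound, 48 hours, 5 concentrations. Analysis: linear interpolation between bracketing concentrations; unreached endpoints set to highest concentration. TGI denotes the concentration required for complete inhibition of growth.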

Experiments:
Test in all cases: NCI tumour cell line growth inhibition, 48 h
[1] = test system: MDA-N
[2] = test system: COLO 205 colon
[3] = test system: HOP-92 NSCLC
[4] = test system: SW-620 colon
[5] = test system: CAKI-1 renal
[6] = test system: NCI-H226 lung
[7] = test system: IGROV1 ovarian
[8] = test system: OVCAR-3 ovarian
[9] = test system: ACHN renal
[10] = test system: SNB-75 CNS
[11] = test system: NCI-H522 lung
[12] = test system: SK-MEL-28 melanoma
[13] = test system: SK-MEL-5 melanoma
[14] = test system: HOP-62 NSCLC
[15] = test system: OVCAR-5 ovarian
[16] = test system: HCT-15 colon
[17] = test system: NCI-H23 lung
[18] = test system: NCI-H460 lung
[19] = test system: TK-10 renal
[20] = test system: OVCAR-4 ovarian
[21] = test system: MDA-MB-435
[22] = test system: SK-OV-3 ovarian
[23] = test system: UACC-62 melanoma
[24] = test system: KM12 colon
[25] = test system: UACC-257 melanoma
[26] = test system: PC-3 prostate
[27] = test system: A498 renal
[28] = test system: SF-539 CNS
[29] = test system: UO-31 renal
[30] = test system: OVCAR-8 ovarian
[31] = test system: SF-295 CNS
[32] = test system: DU-145 prostate
[33] = test system: T-47D breast
[34] = test system: NCI/ADR-RES ovarian
[35] = test system: MDA-MB-231 breast
[36] = test system: SF-268 CNS
[37] = test system: LOX IMVI melanoma
[38] = test system: SN12C renal
[39] = test system: SR leukemia
[40] = test system: HCC-2998 colon
[41] = test system: M14 melanoma
[42] = test system: SNB-19 CNS
[43] = test system: SK-MEL-2 melanoma
[44] = test system: EKVX NSCLC
[45] = test system: RPMI-8226 leukemia
[46] = test system: CCRF-CEM leukemia
[47] = test system: HL-60(TB) leukemia
[48] = test system: HT29 colon
[49] = test system: U251 CNS
[50] = test system: MCF7 breast
[51] = test system: K-562 leukemia
[52] = test system: HCT-116 colon
[53] = test system: HS 578T breast
[54] = test system: MALME-3M melanoma
[55] = test system: 786-0 renal
[56] = test system: A549 NSCLC
[57] = test system: MOLT-4 leukemia
[58] = test system: RXF 393 renal

NC(N)=N/N=C/c1c(-c2ccc(Cl)cc2)nc2sc(Cl)cn12
TGI [1]: 3.13 µM
TGI [2]: 2.12 µM
TGI [3]: 3.17 µM
TGI [4]: 2.28 µM
TGI [5]: 2.82 µM
TGI [6]: 3.36 µM
TGI [7]: 2.04 µM
TGI [8]: 2.88 µM
TGI [9]: > 100 µM
TGI [10]: 2.72 µM
TGI [11]: 3.47 µM
TGI [12]: 3.21 µM
TGI [13]: 2.97 µM
TGI [14]: 3.25 µM
TGI [15]: 3.1 µM
TGI [16]: 2.69 µM
TGI [17]: 2.48 µM
TGI [18]: 3.21 µM
TGI [19]: 3.1 µM
TGI [20]: 2.18 µM
TGI [21]: 2.57 µM
TGI [22]: 3.34 µM
TGI [23]: 3.25 µM
TGI [24]: 2.2 µM
TGI [25]: 3.2 µM
TGI [26]: > 100 µM
TGI [27]: 3.17 µM
TGI [28]: 2.53 µM
TGI [29]: 3.1 µM
TGI [30]: 2.53 µM
TGI [31]: 3.18 µM
TGI [32]: 3.37 µM
TGI [33]: 2.64 µM
TGI [34]: 3.31 µM
TGI [35]: 3.29 µM

O=C(/C=C/c1cccs1)c1ccc([N+](=O)[O-])cc1
TGI [1]: > 100 µM
TGI [2]: > 100 µM
TGI [36]: > 100 µM
TGI [37]: > 100 µM
TGI [4]: > 100 µM
TGI [38]: > 100 µM
TGI [5]: > 100 µM
TGI [39]: > 100 µM
TGI [6]: > 100 µM
TGI [7]: > 100 µM
TGI [40]: > 100 µM
TGI [41]: > 100 µM
TGI [42]: > 100 µM
TGI [9]: > 100 µM
TGI [10]: > 100 µM
TGI [12]: > 100 µM
TGI [43]: > 100 µM
TGI [13]: > 100 µM
TGI [14]: > 100 µM
TGI [44]: > 100 µM
TGI [45]: > 100 µM
TGI [46]: > 100 µM
TGI [16]: > 100 µM
TGI [47]: > 100 µM
TGI [48]: > 100 µM
TGI [17]: > 100 µM
TGI [18]: > 100 µM
TGI [19]: > 100 µM
TGI [20]: > 100 µM
TGI [49]: > 100 µM
TGI [50]: > 100 µM
TGI [21]: > 100 µM
TGI [22]: > 100 µM
TGI [23]: > 100 µM
TGI [51]: > 100 µM
TGI [24]: > 100 µM
TGI [25]: > 100 µM
TGI [52]: > 100 µM
TGI [26]: > 100 µM
TGI [53]: > 100 µM
TGI [27]: > 100 µM
TGI [54]: > 100 µM
TGI [55]: > 100 µM
TGI [56]: > 100 µM
TGI [28]: > 100 µM
TGI [29]: > 100 µM
TGI [30]: > 100 µM
TGI [31]: > 100 µM
TGI [32]: > 100 µM
TGI [57]: > 100 µM
TGI [33]: > 100 µM
TGI [34]: > 100 µM
TGI [35]: > 100 µM

c1csc(C(NC2=NCCO2)C2CC2)c1 (stereo unspecified)
TGI [1]: > 100 µM
TGI [2]: > 100 µM
TGI [3]: > 100 µM
TGI [37]: > 100 µM
TGI [4]: > 100 µM
TGI [38]: > 100 µM
TGI [5]: > 100 µM
TGI [39]: > 100 µM
TGI [6]: > 100 µM
TGI [58]: > 100 µM
TGI [7]: > 100 µM
TGI [40]: > 100 µM
TGI [42]: > 100 µM
TGI [9]: > 100 µM
TGI [10]: > 100 µM
TGI [11]: > 100 µM
TGI [43]: > 100 µM
TGI [13]: > 100 µM
TGI [14]: > 100 µM
TGI [44]: > 100 µM
TGI [45]: > 100 µM
TGI [15]: > 100 µM
TGI [16]: > 100 µM
TGI [48]: > 100 µM
TGI [17]: > 100 µM
TGI [18]: > 100 µM
TGI [20]: > 100 µM
TGI [49]: > 100 µM
TGI [50]: > 100 µM
TGI [22]: > 100 µM
TGI [23]: > 100 µM
TGI [52]: > 100 µM
TGI [26]: > 100 µM
TGI [53]: > 100 µM
TGI [27]: > 100 µM
TGI [56]: > 100 µM
TGI [28]: > 100 µM
TGI [29]: > 100 µM
TGI [30]: > 100 µM
TGI [31]: > 100 µM
TGI [57]: > 100 µM
TGI [33]: > 100 µM
TGI [35]: > 100 µM
